From patent US20220280594A1, “APPLICATION OF POLYPEPTIDE OR DERIVATIVE THEREOF” (CHENGDU HUITAI BIOMEDICINE CO., LTD., priority 2019, published 2022)
Ends that are not written are not given here. PEG = not defined here

Key:
[1] = tested on: human pharyngeal squamous-cell carcinoma cells (Fadu); assay: scratch assay, migration of Fadu cells; format: cell-based; details: 10 μM, 48 hours, control group 28.76 ± 4.08
Description: (§1) In the scratch assay, the cell migration rate was negatively correlated with the inhibitory effect of the drug component on tumor cell migration ability. The cell migration inhibition experiment was described as follows: tumor cells were cultured in vitro, cells in logarithmic growth phase were collected and seeded evenly in a 24-well plate at a density of 1-2×10^5 cells/well; the cells were cultured in a cell incubator until a monolayer was formed; a scratch tool was used to make a “-” (straight) scratch on the monolayer of cells; the cells were washed 1-3 times with PBS, and a medium (with 2% fetal bovine serum) containing specific test components was added to the culture. Experimental grouping: PBS control group; polypeptide or derivative thereof treatment group (N1-N54), 10 μM. Three independent parallel wells were set up in each group, and the cells were cultured continuously in a cell incubator for 48 hours. […] At least 3 representative images for each well were taken. ImageJ software was used to count the migration distance of the cells, and the cell migration rate was calculated as: cell migration rate (%)=(width of original scratch−width of current scratch)/width of original scratch×100.
This example was a scratch assay to evaluate the inhibitory effect of the polypeptide or derivative thereof (N1-N54) on the migration ability of human pharyngeal squamous-cell carcinoma cells (Fadu). The experimental method was as described in Example 2.

[2] = tested on: human lung squamous carcinoma cells (NCI-H226); assay: scratch assay, migration of NCI-H226 cells; format: cell-based; details: NCI-H226, 10 μM, 48 hours; control group 65.31 ± 3.19
Description: as §1
This example was a scratch assay to evaluate the inhibitory effect of the polypeptide or derivative thereof (N1-N54) on the migration ability of human lung squamous carcinoma cells (NCI-H226). The experimental method was as described in Example 2.

[3] = tested on: human breast cancer cells (MDA-MB-231); assay: scratch assay, migration of MDA-MB-231 cells; format: cell-based; details: MDA-MB-231, 10 μM, 48 hours; control group 36.19 ± 5.15
Description: as §1
This example was a scratch assay to evaluate the inhibitory effect of the polypeptide or derivative thereof (N1-N54) on the migration ability of human breast cancer cells (MDA-MB-231). The experimental method was as described in Example 2.

[4] = tested on: human non-small cell lung cancer cells (A549); assay: scratch assay, migration of A549 cells; format: cell-based; details: A549, 10 μM, 48 hours; control group 75.31 ± 8.19
Description: as §1
This example was a scratch assay to evaluate the inhibitory effect of the polypeptide or derivative thereof (N1-N54) on the migration ability of human non-small cell lung cancer (A549). The experimental method was as described in Example 2.

[5] = tested on: human melanoma cells (A375); assay: scratch assay, migration of A375 cells; format: cell-based; details: A375, 10 μM, 48 hours; control group 44.03 ± 6.21
Description: as §1
This example was a scratch assay to evaluate the inhibitory effect of the polypeptide or derivative thereof (N1-N54) on the migration ability of human melanoma cells (A375). The experimental method was as described in Example 2.

[6] = tested on: human lung cancer cells (A549) subcutaneous xenograft; assay: lung cancer subcutaneous xenograft animal model, intravenous injection; format: in vivo, mice (BALB/c-nu/nu); details: intravenous 60 mg/kg once every other day, 20 days; for Weight of tumor (g) (mean ± SD): control 2.53 ± 0.17; for Volume of tumor (mm^3) (mean ± SD): control 3373.26 ± 581.44
Description: Experimental animals: 4-6 weeks old female immunodeficiency mice (BALB/c-nu/nu, Beijing Vital River Laboratory Animal Technology Co., Ltd.).
Subcutaneous xenograft animal model. The number of cells inoculated subcutaneously vin mice was about 2×10^6/200 μL. When the volume of the subcutaneous tumor was greater than 100 mm^3, the mice were randomly divided into groups and subjected to treatment. When the mass volume of the tumors in model control group reached 2000 mm^3 or the animal dies, the treatment ended. The animals were dissected, the tumors were taken out, and the weight and volume of the tumors were measured. During the period of the entire experiment, the mice were observed and the body weight was measured every other day.
The method used in the efficacy test on the lung cancer subcutaneous xenograft animal model was as described in Example 5. The lung cancer cells were the human lung cancer cells (A549), and the route of administration was intravenous injection. This example involved a total of 3 experiments to evaluate N1-N15, N16-N30, and N31-N54 respectively. The experimental procedure, route of administration, dosage and frequency of administration, and detection method were all consistent in the three experiments. The experimental groups were model control group and polypeptide or derivative thereof treatment groups (N1-N15, N16-N30, or N31-N54). The drug dosage of the N1-N54 treatment groups was 60 mg/kg, and the treatment time was 20 days.

[7] = tested on: human breast cancer cells (MCF-7); assay: scratch assay, migration of MCF-7 cells; format: cell-based; details: MCF-7, 10 μM, 48 hours; control group 30.97 ± 1.79
Description: as §1
This example was a scratch assay to evaluate the inhibitory effect of the polypeptide or derivative thereof (N1-N54) on the migration ability of human breast cancer cells (MCF-7). The experimental method was as described in Example 2.

[8] = tested on: human liver cancer cells (HepG2); assay: scratch assay, migration of HepG2 cells; format: cell-based; details: HepG2, 10 μM, 48 hours; control group 71.01 ± 6.63
Description: as §1
This example was a scratch assay to evaluate the inhibitory effect of the polypeptide or derivative thereof (N1-N54) on the migration ability of human liver cancer cells (HepG2). The experimental method was as described in Example 2.

[9] = tested on: human prostate cancer cells (22RV1); assay: scratch assay, migration of 22RV1 cells; format: cell-based; details: 22RV1, 10 μM, 48 hours; control group 25.41 ± 5.01
Description: as §1
This example was a scratch assay to evaluate the inhibitory effect of the polypeptide or derivative thereof (N1-N54) on the migration ability of human prostate cancer cells (22RV1). The experimental method was as described in Example 2.

[10] = tested on: human lung cancer cells (95D); assay: scratch assay, migration of 95D cells; format: cell-based; details: 10 μM, 48 hours, control group 55.3 ± 3.19
Description: as §1
This example was a scratch assay to evaluate the inhibitory effect of the polypeptide or derivative thereof (N1-N54) on the migration ability of human lung cancer cells (95D). The experimental method was as described in Example 2.

[11] = tested on: human colon cancer cells (HCT-116); assay: scratch assay, migration of HCT-116 cells; format: cell-based; details: HCT-116, 10 μM, 48 hours; control group 47.78 ± 6.07
Description: as §1
This example was a scratch assay to evaluate the inhibitory effect of the polypeptide or derivative thereof (N1-N54) on the migration ability of human colon cancer cells (HCT-116). The experimental method was as described in Example 2.

Row | Substance | Migration rate (%) (mean ± SD, P) [1] | Migration rate (%) (mean ± SD, P) [2] | Migration rate (%) (mean ± SD, P) [3] | Migration rate (%) (mean ± SD, P) [4] | Migration rate (%) (mean ± SD, P) [5] | Weight of tumor (g) (mean ± SD) [6] | Volume of tumor (mm^3) (mean ± SD) [6] | Migration rate (%) (mean ± SD, P) [7] | Migration rate (%) (mean ± SD, P) [8] | Migration rate (%) (mean ± SD, P) [9] | Migration rate (%) (mean ± SD, P) [10] | Migration rate (%) (mean ± SD, P) [11]
1 | N54: SEQ ID NO: 1 with A7R, addition of two amino acids and PEG modification at the carboxyl terminal (YRVRFLRKENVTQDAEDNTC-{PEG}; reading uncertain) | 15.88 ± 5.38,* % | 24.66 ± 5.13,*** % | 13.37 ± 5.89,** % | 54.66 ± 4.73,* % | 16.91 ± 3.21,** % | 0.89 ± 0.37 g | 1381.65 ± 396.21 mm^3 | 16.52 ± 2.93,* % | 46.62 ± 3.73,** % | 12.94 ± 2.70,* % | 24.66 ± 6.13,** % | 26.50 ± 3.99,** %
2 | N16: SEQ ID NO: 1 with substitution A7R and addition of one amino acid at the carboxyl terminus (YRVRFLRKENVTQDAEDNC) | 5.51 ± 1.32,*** % | 21.10 ± 8.01,*** % | 14.99 ± 6.11,* % | 30.57 ± 5.41,** % | 11.28 ± 3.14,*** % | 1.05 ± 0.26 g | 1442.4 ± 293.63 mm^3 | 9.81 ± 3.29,** % | 43.25 ± 5.18,** % | 9.75 ± 2.14,** % | 17.00 ± 8.00,** % | 9.39 ± 2.06,*** %
3 | N21: SEQ ID NO: 1 with deletion of positions 1-5 and 15-18 and addition of one amino acid at the amino terminal (SLAKENVTQD) | 16.87 ± 6.77,* % | 13.58 ± 6.67,*** % | 19.95 ± 5.47,* % | 31.06 ± 4.94,** % | 8.29 ± 3.50,*** % | 0.71 ± 0.22 g | 1065.78 ± 432.05 mm^3 | 10.43 ± 2.18,** % | 15.00 ± 7.29,*** % | 12.79 ± 3.06,* % | 40.02 ± 4.20,** % | 12.85 ± 3.12,*** %
4 | N14: SEQ ID NO: 1 with deletion of positions 1-5 and addition of one amino acid at the carboxyl terminal (LAKENVTQDAEDNC) | 12.90 ± 2.47,** % | 19.97 ± 2.94,*** % | 14.59 ± 5.36,* % | 15.27 ± 8.75,*** % | 6.28 ± 1.12,*** % | 0.7 ± 0.26 g | 1431.61 ± 215.71 mm^3 | 7.05 ± 1.40,*** % | 48.61 ± 4.63,** % | 14.06 ± 2.37,* % | 32.55 ± 5.71,** % | 12.24 ± 2.32,*** %
